# How the values were obtained:
# [1] = system: melanin in skin; experiment: whitening action, melanin measurement (Mexameter MX18) on half-face application; format: in vivo, human; details: inferred from loss of activity after heat treatment of ozonized glycerin
# Protocol: Forty-eight healthy individuals (females, 41 years or older and 59 years or younger) participated as test subjects. The test subjects were well informed with description documents (including a consent form) in advance, and a written consent was acquired from each test subject.
# For examination of the whitening action, a test product of Example 2-1A, a test product of Example 2-1B, a test product of Reference Example 2-1A, and a test product of Reference Example 2-1B were prepared.
# The test subjects were divided into two groups below (24 test subjects in each group). Each test subject took two pushes (approximately 1 ml) of a test product on the hands and applied the test product to a specified half of the face after every face washing performed twice per day (morning and night). […]
# Each test subject was subjected to quintuple melanin measurement for freckle sites in the left and right cheeks on the day of initiation of application of test products (week 0) and 4 weeks and 8 weeks after the initiation of application. […] In addition, the changes of melanin measurement values from those at the initiation of the test were determined. Statistical test was carried out with Student t-test, and cases with p<0.05 were determined to be significant differences. […]
# [2] = molecular target: T1, TRPM2 (Homo sapiens, UniProt O94759); experiment: TRP channel activation, intracellular Ca2+ in TRPM2 (expressing cells); format: cell-based
# T1 construct: expressed in transfected cells
# Text: The TLC1 spot product produced in “(1) Production of Oxidation Reaction Product Containing Cyclic Peroxide According to the First Mode of the Present Invention” was directly used without separation (purification) to examine the TRP channel activation. Hereinafter, […]. Hereinafter, “OG” indicates a product formed by ozone-oxidizing glycerin with an oxygen generator (ozonized glycerin). In production of “OG”, the ozone oxidation of glycerin with an oxygen generator was performed with use of a gas having an ozone concentration of approximately 37000 ppm, which had been obtained through a process in which a high concentration of oxygen (oxygen concentration: 70% or more) was given to air with an oxygen generator and the oxygen was ozonized via an ozone generator, under Conditions A below. Hereinafter, “LOG” indicates a product formed by further oxidizing “OG”. Production of “LOG” by oxidation of “OG” was performed with use of a gas having an ozone concentration of approximately 37000 ppm, which had been obtained through a process in which oxygen from an oxygen tank (oxygen concentration: 99% or more) was ozonized via an ozone generator, under Conditions B below. […]
# [3] = positive control, known activity; cited from earlier work
# [4] = general statement; cited from earlier work
# T1 sequence (O94759 whole entry): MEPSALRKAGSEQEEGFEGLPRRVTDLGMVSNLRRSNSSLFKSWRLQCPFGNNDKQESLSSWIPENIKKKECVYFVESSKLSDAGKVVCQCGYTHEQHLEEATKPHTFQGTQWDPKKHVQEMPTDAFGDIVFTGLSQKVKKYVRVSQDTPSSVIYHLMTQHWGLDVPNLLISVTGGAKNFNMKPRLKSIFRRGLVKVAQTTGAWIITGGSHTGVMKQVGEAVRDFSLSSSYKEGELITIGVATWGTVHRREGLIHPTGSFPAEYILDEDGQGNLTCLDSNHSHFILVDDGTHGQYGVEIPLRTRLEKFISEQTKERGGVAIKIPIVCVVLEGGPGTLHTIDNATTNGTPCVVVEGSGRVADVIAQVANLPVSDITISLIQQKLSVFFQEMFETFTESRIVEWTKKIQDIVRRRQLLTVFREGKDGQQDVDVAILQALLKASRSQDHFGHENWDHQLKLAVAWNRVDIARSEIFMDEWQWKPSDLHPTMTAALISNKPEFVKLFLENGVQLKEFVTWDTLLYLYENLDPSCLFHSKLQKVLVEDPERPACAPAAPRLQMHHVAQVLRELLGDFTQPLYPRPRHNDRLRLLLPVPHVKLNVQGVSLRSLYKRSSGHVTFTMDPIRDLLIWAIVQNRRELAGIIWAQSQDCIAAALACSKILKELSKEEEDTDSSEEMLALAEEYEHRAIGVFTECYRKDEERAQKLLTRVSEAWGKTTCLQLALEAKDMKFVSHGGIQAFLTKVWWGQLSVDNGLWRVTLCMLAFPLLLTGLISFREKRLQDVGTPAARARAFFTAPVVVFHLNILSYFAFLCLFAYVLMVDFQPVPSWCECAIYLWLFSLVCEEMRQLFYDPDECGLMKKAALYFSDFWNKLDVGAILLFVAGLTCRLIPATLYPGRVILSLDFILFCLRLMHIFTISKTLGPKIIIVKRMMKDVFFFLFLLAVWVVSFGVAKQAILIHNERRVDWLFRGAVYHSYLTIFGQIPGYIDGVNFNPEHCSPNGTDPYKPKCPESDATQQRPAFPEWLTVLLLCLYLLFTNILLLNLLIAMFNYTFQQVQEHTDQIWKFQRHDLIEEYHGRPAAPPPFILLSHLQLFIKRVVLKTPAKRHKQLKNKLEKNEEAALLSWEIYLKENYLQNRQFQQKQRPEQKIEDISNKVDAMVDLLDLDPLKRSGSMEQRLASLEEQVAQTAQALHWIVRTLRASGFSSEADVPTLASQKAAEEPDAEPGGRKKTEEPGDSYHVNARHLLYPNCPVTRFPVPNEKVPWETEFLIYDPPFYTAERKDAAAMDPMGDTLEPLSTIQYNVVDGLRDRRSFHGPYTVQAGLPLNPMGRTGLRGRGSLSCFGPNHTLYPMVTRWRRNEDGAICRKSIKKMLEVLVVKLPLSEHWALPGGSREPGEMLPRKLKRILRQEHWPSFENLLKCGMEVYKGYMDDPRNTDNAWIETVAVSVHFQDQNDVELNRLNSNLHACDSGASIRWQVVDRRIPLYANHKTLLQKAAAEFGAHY
structure (smiles),measurement,setting,value
"OCC(O)C1OOCOCC1O (single isomer, unassigned) [compound of the chemical formula (1)]",whitening action (inferred active ingredient),[1],active ingredient responsible for the whitening action
"OCC(O)CO [G, glycerin]",TRP channel activation (net intracellular Ca2+ increase rates),"[2]; 10% by mass aqueous solution, FIG. 1-24",high TRP channel activation
same,TRP channel activation (net intracellular Ca2+ increase rates),"[2]; concentrations (% by mass) of the aqueous solutions changed, FIG. 1-25",higher TRP channel activation at high concentrations
"O=C(C[n+]1ccsc1)c1ccccc1.[Br-] [PTB, N-phenacylthiazolium bromide]",cleavage activity to crosslinking structures formed by AGEs,[3],known to have cleavage activity to crosslinking structures formed by AGEs
C[C@@H]1CC[C@H]2[C@@H](C)C(=O)O[C@@H]3O[C@@]4(C)CC[C@@H]1[C@]32OO4 [artemisinin],water solubility and liposolubility,[4],neither water-soluble nor liposoluble
